# Assay results reported in ChEMBL document CHEMBL3046358, “Multiple Pro-197 substitutions in the acetolactate synthase of rigid ryegrass (Lolium rigidum) and their impact on chlorsulfuron activity and plant growth” (Crop Prot, 2012).
# Experiments:
# Type in all cases: functional
# Lolium rigidum [1] = assay: Herbicidal activity against Lolium rigidum accession A01 assessed as emergence rate applied at 1 times pre-emergence recommended rate relative to untreated control
# Lolium rigidum [2] = assay: Herbicidal activity against Lolium rigidum accession A12 assessed as emergence rate applied at 1 times pre-emergence recommended rate relative to untreated control
# Lolium rigidum [3] = assay: Herbicidal activity against Lolium rigidum accession A15 assessed as fresh weight reduction applied at 1 times pre-emergence recommended rate relative to untreated control; parameters: scale not given: the % may be the effect or the level left
# Lolium rigidum [4] = assay: Herbicidal activity against Lolium rigidum accession A14 assessed as emergence rate applied at 1 times pre-emergence recommended rate relative to untreated control
# Lolium rigidum [5] = assay: Herbicidal activity against Lolium rigidum accession A05 assessed as fresh weight reduction applied at 1 times pre-emergence recommended rate relative to untreated control; parameters: scale not given: the % may be the effect or the level left
# Lolium rigidum [6] = assay: Herbicidal activity against Lolium rigidum accession A04 assessed as fresh weight reduction applied at 1 times pre-emergence recommended rate relative to untreated control; parameters: scale not given: the % may be the effect or the level left
# Lolium rigidum [7] = assay: Herbicidal activity against Lolium rigidum accession A08 assessed as fresh weight reduction applied at 1 times pre-emergence recommended rate relative to untreated control; parameters: scale not given: the % may be the effect or the level left
# Lolium rigidum [8] = assay: Herbicidal activity against Lolium rigidum accession A09 assessed as emergence rate applied at 1 times pre-emergence recommended rate relative to untreated control
# Lolium rigidum [9] = assay: Herbicidal activity against Lolium rigidum accession A10 assessed as fresh weight reduction applied at 1 times pre-emergence recommended rate relative to untreated control; parameters: scale not given: the % may be the effect or the level left
# Lolium rigidum [10] = assay: Herbicidal activity against Lolium rigidum accession A02 assessed as fresh weight reduction applied at 1 times pre-emergence recommended rate relative to untreated control; parameters: scale not given: the % may be the effect or the level left
# Lolium rigidum [11] = assay: Herbicidal activity against Lolium rigidum accession A08 assessed as emergence rate applied at 1 times pre-emergence recommended rate relative to untreated control
# Lolium rigidum [12] = assay: Herbicidal activity against Lolium rigidum accession A03 assessed as emergence rate applied at 1 times pre-emergence recommended rate relative to untreated control
# Lolium rigidum [13] = assay: Herbicidal activity against Lolium rigidum accession A14 assessed as fresh weight reduction applied at 1 times pre-emergence recommended rate relative to untreated control; parameters: scale not given: the % may be the effect or the level left
# Lolium rigidum [14] = assay: Herbicidal activity against Lolium rigidum accession A03 assessed as fresh weight reduction applied at 1 times pre-emergence recommended rate relative to untreated control; parameters: scale not given: the % may be the effect or the level left
# Lolium rigidum [15] = assay: Herbicidal activity against Lolium rigidum accession A05 assessed as emergence rate applied at 1 times pre-emergence recommended rate relative to untreated control
# Lolium rigidum [16] = assay: Herbicidal activity against Lolium rigidum accession A06 assessed as emergence rate applied at 1 times pre-emergence recommended rate relative to untreated control
# Lolium rigidum [17] = assay: Herbicidal activity against Lolium rigidum accession A06 assessed as fresh weight reduction applied at 1 times pre-emergence recommended rate relative to untreated control; parameters: scale not given: the % may be the effect or the level left
# Lolium rigidum [18] = assay: Herbicidal activity against Lolium rigidum accession A11 assessed as fresh weight reduction applied at 1 times pre-emergence recommended rate relative to untreated control; parameters: scale not given: the % may be the effect or the level left
# Lolium rigidum [19] = assay: Herbicidal activity against Lolium rigidum accession A07 assessed as emergence rate applied at 1 times pre-emergence recommended rate relative to untreated control
# Lolium rigidum [20] = assay: Herbicidal activity against Lolium rigidum accession A13 assessed as emergence rate applied at 1 times pre-emergence recommended rate relative to untreated control
# Lolium rigidum [21] = assay: Herbicidal activity against Lolium rigidum accession A11 assessed as emergence rate applied at 1 times pre-emergence recommended rate relative to untreated control
# Lolium rigidum [22] = assay: Herbicidal activity against Lolium rigidum accession A09 assessed as fresh weight reduction applied at 1 times pre-emergence recommended rate relative to untreated control; parameters: scale not given: the % may be the effect or the level left
# Lolium rigidum [23] = assay: Herbicidal activity against Lolium rigidum accession A01 assessed as fresh weight reduction applied at 1 times pre-emergence recommended rate relative to untreated control; parameters: scale not given: the % may be the effect or the level left
# Lolium rigidum [24] = assay: Herbicidal activity against Lolium rigidum accession A02 assessed as emergence rate applied at 1 times pre-emergence recommended rate relative to untreated control
# Lolium rigidum [25] = assay: Herbicidal activity against Lolium rigidum accession A13 assessed as fresh weight reduction applied at 1 times pre-emergence recommended rate relative to untreated control; parameters: scale not given: the % may be the effect or the level left
# Lolium rigidum [26] = assay: Herbicidal activity against Lolium rigidum accession A10 assessed as emergence rate applied at 1 times pre-emergence recommended rate relative to untreated control
# Lolium rigidum [27] = assay: Herbicidal activity against Lolium rigidum accession A07 assessed as fresh weight reduction applied at 1 times pre-emergence recommended rate relative to untreated control; parameters: scale not given: the % may be the effect or the level left
# Lolium rigidum [28] = assay: Herbicidal activity against Lolium rigidum accession A12 assessed as fresh weight reduction applied at 1 times pre-emergence recommended rate relative to untreated control; parameters: scale not given: the % may be the effect or the level left
# Lolium rigidum [29] = assay: Herbicidal activity against Lolium rigidum accession A04 assessed as emergence rate applied at 1 times pre-emergence recommended rate relative to untreated control
# Lolium rigidum [30] = assay: Herbicidal activity against Lolium rigidum accession A15 assessed as emergence rate applied at 1 times pre-emergence recommended rate relative to untreated control
# Lolium rigidum [31] = assay: Herbicidal activity against Lolium rigidum accession A06 assessed as fresh weight reduction applied at recommended rate incorporated into the soil prior weed seedlings relative to untreated control; parameters: scale not given: the % may be the effect or the level left
# Lolium rigidum [32] = assay: Herbicidal activity against Lolium rigidum accession A13 assessed as emergence rate applied at recommended rate incorporated into the soil prior weed seedlings relative to untreated control
# Lolium rigidum [33] = assay: Herbicidal activity against Lolium rigidum accession A14 assessed as fresh weight reduction applied at recommended rate incorporated into the soil prior weed seedlings relative to untreated control; parameters: scale not given: the % may be the effect or the level left
# Lolium rigidum [34] = assay: Herbicidal activity against Lolium rigidum accession A05 assessed as fresh weight reduction applied at recommended rate incorporated into the soil prior weed seedlings relative to untreated control; parameters: scale not given: the % may be the effect or the level left
# Lolium rigidum [35] = assay: Herbicidal activity against Lolium rigidum accession A02 assessed as emergence rate applied at recommended rate incorporated into the soil prior weed seedlings relative to untreated control
# Lolium rigidum [36] = assay: Herbicidal activity against Lolium rigidum accession A15 assessed as emergence rate applied at recommended rate incorporated into the soil prior weed seedlings relative to untreated control
# Lolium rigidum [37] = assay: Herbicidal activity against Lolium rigidum accession A08 assessed as emergence rate applied at recommended rate incorporated into the soil prior weed seedlings relative to untreated control
# Lolium rigidum [38] = assay: Herbicidal activity against Lolium rigidum accession A02 assessed as fresh weight reduction applied at recommended rate incorporated into the soil prior weed seedlings relative to untreated control; parameters: scale not given: the % may be the effect or the level left
# Lolium rigidum [39] = assay: Herbicidal activity against Lolium rigidum accession A03 assessed as emergence rate applied at recommended rate incorporated into the soil prior weed seedlings relative to untreated control
# Lolium rigidum [40] = assay: Herbicidal activity against Lolium rigidum accession A11 assessed as fresh weight reduction applied at recommended rate incorporated into the soil prior weed seedlings relative to untreated control; parameters: scale not given: the % may be the effect or the level left
# Lolium rigidum [41] = assay: Herbicidal activity against Lolium rigidum accession A03 assessed as fresh weight reduction applied at recommended rate incorporated into the soil prior weed seedlings relative to untreated control; parameters: scale not given: the % may be the effect or the level left
# Lolium rigidum [42] = assay: Herbicidal activity against Lolium rigidum accession A08 assessed as fresh weight reduction applied at recommended rate incorporated into the soil prior weed seedlings relative to untreated control; parameters: scale not given: the % may be the effect or the level left
# Lolium rigidum [43] = assay: Herbicidal activity against Lolium rigidum accession A09 assessed as fresh weight reduction applied at recommended rate incorporated into the soil prior weed seedlings relative to untreated control; parameters: scale not given: the % may be the effect or the level left
# Lolium rigidum [44] = assay: Herbicidal activity against Lolium rigidum accession A01 assessed as fresh weight reduction applied at recommended rate incorporated into the soil prior weed seedlings relative to untreated control; parameters: scale not given: the % may be the effect or the level left
# Lolium rigidum [45] = assay: Herbicidal activity against Lolium rigidum accession A07 assessed as fresh weight reduction applied at recommended rate incorporated into the soil prior weed seedlings relative to untreated control; parameters: scale not given: the % may be the effect or the level left
# Lolium rigidum [46] = assay: Herbicidal activity against Lolium rigidum accession A12 assessed as fresh weight reduction applied at recommended rate incorporated into the soil prior weed seedlings relative to untreated control; parameters: scale not given: the % may be the effect or the level left
# Lolium rigidum [47] = assay: Herbicidal activity against Lolium rigidum accession A10 assessed as fresh weight reduction applied at recommended rate incorporated into the soil prior weed seedlings relative to untreated control; parameters: scale not given: the % may be the effect or the level left
# Lolium rigidum [48] = assay: Herbicidal activity against Lolium rigidum accession A13 assessed as fresh weight reduction applied at recommended rate incorporated into the soil prior weed seedlings relative to untreated control; parameters: scale not given: the % may be the effect or the level left
# Lolium rigidum [49] = assay: Herbicidal activity against Lolium rigidum accession A09 assessed as emergence rate applied at recommended rate incorporated into the soil prior weed seedlings relative to untreated control
# Lolium rigidum [50] = assay: Herbicidal activity against Lolium rigidum accession A11 assessed as emergence rate applied at recommended rate incorporated into the soil prior weed seedlings relative to untreated control
# Lolium rigidum [51] = assay: Herbicidal activity against Lolium rigidum accession A04 assessed as fresh weight reduction applied at recommended rate incorporated into the soil prior weed seedlings relative to untreated control; parameters: scale not given: the % may be the effect or the level left
# Lolium rigidum [52] = assay: Herbicidal activity against Lolium rigidum accession A15 assessed as fresh weight reduction applied at recommended rate incorporated into the soil prior weed seedlings relative to untreated control; parameters: scale not given: the % may be the effect or the level left
# Lolium rigidum [53] = assay: Herbicidal activity against Lolium rigidum accession A05 assessed as emergence rate applied at recommended rate incorporated into the soil prior weed seedlings relative to untreated control
# Lolium rigidum [54] = assay: Herbicidal activity against Lolium rigidum accession A14 assessed as emergence rate applied at recommended rate incorporated into the soil prior weed seedlings relative to untreated control
# Lolium rigidum [55] = assay: Herbicidal activity against Lolium rigidum accession A04 assessed as emergence rate applied at recommended rate incorporated into the soil prior weed seedlings relative to untreated control
# Lolium rigidum [56] = assay: Herbicidal activity against Lolium rigidum accession A12 assessed as emergence rate applied at recommended rate incorporated into the soil prior weed seedlings relative to untreated control
# Lolium rigidum [57] = assay: Herbicidal activity against Lolium rigidum accession A01 assessed as emergence rate applied at recommended rate incorporated into the soil prior weed seedlings relative to untreated control
# Lolium rigidum [58] = assay: Herbicidal activity against Lolium rigidum accession A10 assessed as emergence rate applied at recommended rate incorporated into the soil prior weed seedlings relative to untreated control
# Lolium rigidum [59] = assay: Herbicidal activity against Lolium rigidum accession A06 assessed as emergence rate applied at recommended rate incorporated into the soil prior weed seedlings relative to untreated control
# Lolium rigidum [60] = assay: Herbicidal activity against Lolium rigidum accession A07 assessed as emergence rate applied at recommended rate incorporated into the soil prior weed seedlings relative to untreated control
structure (smiles),measurement,setting,value
CCCN(CCC)C(=O)SCc1ccccc1 [PROSULFOCARB],Activity,Lolium rigidum [1],0%
same,Activity,Lolium rigidum [2],0%
same,Activity,Lolium rigidum [3],100%
same,Activity,Lolium rigidum [4],0%
same,Activity,Lolium rigidum [5],100%
same,Activity,Lolium rigidum [6],98%
same,Activity,Lolium rigidum [7],100%
same,Activity,Lolium rigidum [8],0%
same,Activity,Lolium rigidum [9],100%
same,Activity,Lolium rigidum [10],100%
same,Activity,Lolium rigidum [11],0%
same,Activity,Lolium rigidum [12],0%
same,Activity,Lolium rigidum [13],100%
same,Activity,Lolium rigidum [14],100%
same,Activity,Lolium rigidum [15],0%
same,Activity,Lolium rigidum [16],0%
same,Activity,Lolium rigidum [17],100%
same,Activity,Lolium rigidum [18],99%
same,Activity,Lolium rigidum [19],0%
same,Activity,Lolium rigidum [20],0%
same,Activity,Lolium rigidum [21],1%
same,Activity,Lolium rigidum [22],100%
same,Activity,Lolium rigidum [23],100%
same,Activity,Lolium rigidum [24],0%
same,Activity,Lolium rigidum [25],100%
same,Activity,Lolium rigidum [26],0%
same,Activity,Lolium rigidum [27],100%
same,Activity,Lolium rigidum [28],100%
same,Activity,Lolium rigidum [29],1%
same,Activity,Lolium rigidum [30],0%
CCOP(=S)(OCC)SCSC(C)(C)C [TERBUFOS],Activity,Lolium rigidum [31],0%
same,Activity,Lolium rigidum [32],100%
same,Activity,Lolium rigidum [33],1%
same,Activity,Lolium rigidum [34],1%
same,Activity,Lolium rigidum [35],97%
same,Activity,Lolium rigidum [36],99%
same,Activity,Lolium rigidum [37],100%
same,Activity,Lolium rigidum [38],0%
same,Activity,Lolium rigidum [39],98%
same,Activity,Lolium rigidum [40],0%
same,Activity,Lolium rigidum [41],0%
same,Activity,Lolium rigidum [42],0%
same,Activity,Lolium rigidum [43],0%
same,Activity,Lolium rigidum [44],0%
same,Activity,Lolium rigidum [45],0%
same,Activity,Lolium rigidum [46],2%
same,Activity,Lolium rigidum [47],0%
same,Activity,Lolium rigidum [48],0%
same,Activity,Lolium rigidum [49],99%
same,Activity,Lolium rigidum [50],98%
same,Activity,Lolium rigidum [51],0%
same,Activity,Lolium rigidum [52],0%
same,Activity,Lolium rigidum [53],95%
same,Activity,Lolium rigidum [54],94%
same,Activity,Lolium rigidum [55],100%
same,Activity,Lolium rigidum [56],93%
same,Activity,Lolium rigidum [57],99%
same,Activity,Lolium rigidum [58],95%
same,Activity,Lolium rigidum [59],97%
same,Activity,Lolium rigidum [60],93%
